Experimental data reported in patent US9126941B2, “Treatment of hyperproliferative disorders with diarylhydantoin compounds” (The Regents of the University of California, priority 2005, dated 2015).

Each compound was assayed against AR (Homo sapiens, UniProt P10275) (assay: cell-based). Details: not given.
Type: cell-based
Description: The compounds were subjected to tests using an artificial AR response reporter system in a hormone refractory prostate cancer cell line. […] After two days of incubation, reporter activities were assayed.

Sequence of AR (P10275 whole entry, looked up): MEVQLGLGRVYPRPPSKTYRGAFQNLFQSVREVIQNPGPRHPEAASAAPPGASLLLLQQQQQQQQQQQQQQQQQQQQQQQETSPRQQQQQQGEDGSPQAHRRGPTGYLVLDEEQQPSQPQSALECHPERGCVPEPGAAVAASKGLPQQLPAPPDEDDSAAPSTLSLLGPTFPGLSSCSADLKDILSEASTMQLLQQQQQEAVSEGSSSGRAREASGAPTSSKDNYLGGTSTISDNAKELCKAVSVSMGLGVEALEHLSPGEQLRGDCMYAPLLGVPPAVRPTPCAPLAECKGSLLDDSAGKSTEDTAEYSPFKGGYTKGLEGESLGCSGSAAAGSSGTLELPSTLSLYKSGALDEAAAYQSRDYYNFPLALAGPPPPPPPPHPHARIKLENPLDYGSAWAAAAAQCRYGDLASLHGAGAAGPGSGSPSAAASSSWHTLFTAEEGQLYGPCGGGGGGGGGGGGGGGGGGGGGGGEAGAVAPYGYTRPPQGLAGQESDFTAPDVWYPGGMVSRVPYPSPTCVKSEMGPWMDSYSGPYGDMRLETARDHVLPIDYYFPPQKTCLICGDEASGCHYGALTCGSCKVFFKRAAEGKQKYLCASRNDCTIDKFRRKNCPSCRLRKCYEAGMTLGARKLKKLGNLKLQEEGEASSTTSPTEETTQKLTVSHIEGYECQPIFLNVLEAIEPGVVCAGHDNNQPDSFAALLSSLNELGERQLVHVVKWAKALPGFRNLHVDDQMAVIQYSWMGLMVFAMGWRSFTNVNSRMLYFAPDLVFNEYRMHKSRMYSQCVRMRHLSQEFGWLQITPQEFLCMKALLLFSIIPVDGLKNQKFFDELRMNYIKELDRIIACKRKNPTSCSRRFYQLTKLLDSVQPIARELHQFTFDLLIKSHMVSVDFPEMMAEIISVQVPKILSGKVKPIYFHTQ

SMILES | IC50 | Luciferase activity in LNCaP-AR cells (FIG. 3)
Cc1ccnc(N2C(=S)N(c3ccc(C#N)c(C(F)(F)F)c3)C(=O)C2(C)C)c1 [RD83, 4-[4,4-dimethyl-3-(4-methylpyridin-2-yl)-5-oxo-2-thioxoimidazolidin-1-yl]-2-trifluoromethylbenzonitrile] | 457 nM | –
COC(=O)CCCc1ccc(N2C(=S)N(c3ccc(C#N)c(C(F)(F)F)c3)C(=O)C23CCC3)cc1 [RD129, 4-{4-[7-(4-cyano-3-trifluoromethylphenyl)-8-oxo-6-thioxo-5,7-diazaspiro[3.4]oct-5-yl]-phenyl}-butyric acid methyl ester] | 432 nM | –
CC1(C)C(=O)N(c2ccc(C#N)c(C(F)(F)F)c2)C(=S)N1c1ccccn1 [RD82, 4-[4,4-dimethyl-3-(4-pyridin-2-yl)-5-oxo-2-thioxoimidazolidin-1-yl]-2-trifluoromethylbenzonitrile] | 723 nM | –
Cc1cc(N2C(=S)N(c3ccc(C#N)c(C(F)(F)F)c3)C(=O)C23CCC3)[nH]n1 [RD84, 4-[5-(5-methyl-2H-pyrazol-3-yl)-8-oxo-6-thioxo-5,7-diaza-spiro[3.4]oct-7-yl]-2-trifluoromethyl-benzonitrile, reference compound] | > 1000 nM | –
CC1(C)C(=O)N(c2ccc(C#N)c(C(F)(F)F)c2)C(=S)N1c1ccc(N)cc1 [RD9, 4-[3-(4-aminophenyl)-4,4-dimethyl-5-oxo-2-thioxoimidazolidin-1-yl]-2-trifluoromethylbenzonitrile] | 273 nM | –
N#Cc1ccc(N2C(=O)C3(CCCC3)N(c3ccc([N+](=O)[O-])cc3)C2=S)cc1C(F)(F)F [RD55, 4-[1-(4-nitrophenyl)-4-oxo-2-thioxo-1,3-diazaspiro[4.4]non-3-yl]-2-trifluoromethylbenzonitrile] | 498 nM | –
CC1(C)C(=O)N(c2ccc(C#N)c(C(F)(F)F)c2)C(=S)N1c1ccc(OC(=O)CCl)cc1 [RD13, Chloroacetic acid 4-[3-(4-cyano-3-trifluoromethylphenyl)-5,5-dimethyl-4-oxo-2-thioxoimidazolidin-1-yl]phenyl ester] | 131 nM | –
N#Cc1ccc(N2C(=O)C3(CCC3)N(c3ccc(O)cc3F)C2=S)cc1C(F)(F)F [RD163, 4-[5-(2-fluoro-4-hydroxyphenyl)-8-oxo-6-thioxo-5,7-diazaspiro[3.4]oct-7-yl]-2-trifluoromethylbenzonitrile] | – | acted to reduce luciferase activity
Cc1ccc(N2C(=S)N(c3ccc(C#N)c(C(F)(F)F)c3)C(=O)C23CCCCC3)cc1 [RD48, 4-(4-oxo-2-thioxo-1-(4-methylphenyl)-1,3-diazaspiro[4.5]dec-3-yl)-2-trifluoromethylbenzonitrile] | 194 nM | –
Cc1ccc(N2C(=S)N(c3ccc(C#N)c(C(F)(F)F)c3)C(=O)C23CCN(C)CC3)cc1 [RD53, 4-(8-methyl-4-oxo-2-thioxo-1-(4-methylphenyl)-1,3,8-triazaspiro[4.5]dec-3-yl)-2-trifluoromethylbenzonitrile] | 638 nM | –
N#Cc1ccc(N2C(=O)C3(CCC3)N(c3ccc(-c4ccccc4)cc3)C2=S)cc1C(F)(F)F [RD57, 4-(8-oxo-6-thioxo-5-(4-biphenyl)-5,7-diazaspiro[3.4]oct-7-yl)-2-trifluoromethylbenzonitrile] | 283 nM | –
COC(=O)c1ccc(N2C(=S)N(c3ccc(C#N)c(C(F)(F)F)c3)C(=O)C2(C)C)cc1 [RD152, 4-[3-(4-cyano-3-trifluoromethylphenyl)-5,5-dimethyl-4-oxo-2-thioxo-imidazolidin-1-yl]benzoic acid methyl ester] | – | acted to reduce luciferase activity

Same assay, conditions: 500 nM

SMILES | Rank order, most active to least active, relative luciferase activity (FIG. 3)
N#Cc1ccc(N2C(=O)C3(CCC3)N(c3ccc(O)cc3F)C2=S)cc1C(F)(F)F [RD163, 4-[5-(2-fluoro-4-hydroxyphenyl)-8-oxo-6-thioxo-5,7-diazaspiro[3.4]oct-7-yl]-2-trifluoromethylbenzonitrile] | RD152>RD153>RD145>RD163>RD161=RD162>bicalutamide
COC(=O)c1ccc(N2C(=S)N(c3ccc(C#N)c(C(F)(F)F)c3)C(=O)C2(C)C)cc1 [RD152, 4-[3-(4-cyano-3-trifluoromethylphenyl)-5,5-dimethyl-4-oxo-2-thioxo-imidazolidin-1-yl]benzoic acid methyl ester] | RD152>RD153>RD145>RD163>RD161=RD162>bicalutamide

Same assay, conditions: LNCaP-AR, 100 pM R1881, two days; No = did not inhibit AR response reporter

SMILES | IC50 (nM) Reporter
COC(=O)CCc1ccc(N2C(=S)N(c3ccc(C#N)c(C(F)(F)F)c3)C(=O)C23CCC3)cc1 [RD128, 3-{4-[7-(4-cyano-3-trifluoromethylphenyl)-8-oxo-6-thioxo-5,7-diazaspiro[3.4]oct-5-yl]-phenyl}-propionic acid methyl ester] | No
